According to patent US5843437A, “A82846 antibiotics” (Eli Lilly and Company, priority 1995, dated 1998):
Bridge positions count the residues as written; N and C are the ends. Square brackets hold non-standard residues; d marks the D form. Peptide text beside a SMILES is read from it. * marks the point of attachment. Ileψ(thiazoline)Cys = CC[C@H](C)[C@H](N)C1=N[C@H](C(=O)*)CS1; dOrn = NCCC[C@@H](N)C(=O)O

What was measured:
[1] = tested on: Cultures A82846 and A82846.1; assay: resistance to antibiotics, antibiotic sensitivity discs on seeded agar plates
N. orientalis = assay: resistance to antibiotics, sensitivity discs (Table III); assay type: cell-based, Nocardia orientalis
N. aerocolonigenes = assay: as above; assay type: cell-based, Nocardia aerocolonigenes
A82846 = assay: as above; assay type: cell-based, Nocardia orientalis; conditions: culture A82846

CC[C@H](C)[C@H](N)C1=N[C@H](C(=O)N[C@@H](CC(C)C)C(=O)N[C@H](CCC(=O)O)C(=O)N[C@H](C(=O)N[C@H]2CCCCNC(=O)[C@H](CC(N)=O)NC(=O)[C@@H](CC(=O)O)NC(=O)[C@H](Cc3cnc[nH]3)NC(=O)[C@@H](Cc3ccccc3)NC(=O)[C@H]([C@@H](C)CC)NC(=O)[C@@H](CCCN)NC2=O)[C@@H](C)CC)CS1 [bacitracin] ({Ileψ(thiazoline)Cys}-L[dE]IK[dOrn]I[dF]H[dD]N; lactam 4-C)
antibiotic resistance ([1]; disc 10 units): resistant

CC(=O)OCC1=C(C(=O)O)N2C(=O)[C@@H](NC(=O)Cc3cccs3)[C@H]2SC1 [cephalothin]
antibiotic resistance ([1]; disc 30 μg): resistant

O=C(N[C@H](CO)[C@H](O)c1ccc([N+](=O)[O-])cc1)C(Cl)Cl [chloramphenicol]
antibiotic resistance ([1]; disc 30 μg): sensitive

CC[C@H]1OC(=O)[C@H](C)[C@@H](O[C@H]2C[C@@](C)(OC)[C@@H](O)[C@H](C)O2)[C@H](C)[C@@H](O[C@@H]2O[C@H](C)C[C@H](N(C)C)[C@H]2O)[C@](C)(O)C[C@@H](C)C(=O)[C@H](C)[C@@H](O)[C@]1(C)O [erythromycin]
antibiotic resistance ([1]; disc 15 μg): resistant

CCC[C@@H]1C[C@@H](C(=O)N[C@@H]([C@H]2O[C@H](SC)[C@H](O)[C@@H](O)[C@H]2O)[C@@H](C)O)N(C)C1 [lincomycin]
antibiotic resistance ([1]; disc 2 μg): resistant

C1N2CN3CN1CN(C2)C3 [mandelamine]
antibiotic resistance ([1]; disc 3 μg): sensitive

CCn1cc(C(=O)O)c(=O)c2ccc(C)nc21 [nalidixic acid]
antibiotic resistance ([1]; disc 30 μg): resistant

CO[C@@H]1[C@@H](OC(N)=O)[C@@H](O)[C@H](Oc2ccc3c(O)c(NC(=O)c4ccc(O)c(CC=C(C)C)c4)c(=O)oc3c2C)OC1(C)C [novobiocin]
antibiotic resistance ([1]; disc 30 μg): sensitive

CO[C@H]1C[C@H](O[C@H]2[C@H](C)[C@@H](O[C@@H]3O[C@H](C)C[C@H](N(C)C)[C@H]3O)[C@@H](C)C[C@@]3(CO3)C(=O)[C@H](C)[C@@H](O)[C@@H](C)[C@@H](C)OC(=O)[C@@H]2C)O[C@@H](C)[C@@H]1O [oleandomycin]
antibiotic resistance ([1]; disc 15 μg): resistant

CC1(C)S[C@@H]2[C@H](NC(=O)Cc3ccccc3)C(=O)N2[C@H]1C(=O)O [penicillin G]
antibiotic resistance ([1]; disc 10 units): resistant

CO[C@H]1/C=C/O[C@@]2(C)Oc3c(C)c(O)c4c(O)c(c(/C=N/N5CCN(C)CC5)c(O)c4c3C2=O)NC(=O)/C(C)=C\C=C\[C@H](C)[C@H](O)[C@@H](C)[C@@H](O)[C@@H](C)[C@H](OC(C)=O)[C@@H]1C [rifampin]
antibiotic resistance ([1]; disc 5 μg): sensitive

[H]/N=C(/N)N[C@H]1[C@H](O)[C@@H](O)[C@H](O[C@@H]2O[C@@H](C)[C@](O)(C=O)[C@H]2O[C@@H]2O[C@@H](CO)[C@H](O)[C@@H](O)[C@@H]2NC)[C@@H](N/C(N)=N\[H])[C@@H]1O [streptomycin]
antibiotic resistance ([1]; disc 10 μg): resistant

Nc1ccc(S(=O)(=O)Nc2ncccn2)cc1 [sulfadiazine]
antibiotic resistance ([1]; disc 300 μg): resistant

CN(C)C1C(=O)C(C(N)=O)=C(O)C2(O)C(=O)C3=C(O)c4c(O)cccc4C(C)(O)C3CC12 (stereo not shown) [tetracycline]
antibiotic resistance ([1]; disc 30 μg): sensitive

NC[C@H]1O[C@H](O[C@H]2[C@H](O)[C@@H](O[C@H]3O[C@H](CO)[C@@H](O)[C@H](N)[C@H]3O)[C@H](N)C[C@@H]2N)[C@H](N)C[C@@H]1O [tobramycin]
antibiotic resistance ([1]; disc 10 μg): resistant

COc1cc(Cc2cnc(N)nc2N)cc(OC)c1OC [trimethoprim]
antibiotic resistance ([1]; disc 5 μg): resistant

gentamicin
Resistance to (N. orientalis; 10 μg): -
Resistance to (N. aerocolonigenes; 10 μg): -
Resistance to (A82846; 10 μg): +
antibiotic resistance ([1]; disc 10 μg): resistant

neomycin
Resistance to (N. orientalis; 30 μg): -
Resistance to (N. aerocolonigenes; 30 μg): -
Resistance to (A82846; 30 μg): -
antibiotic resistance ([1]; disc 30 μg): sensitive

polymixin B
Resistance to (N. orientalis; 300 units): +
Resistance to (N. aerocolonigenes; 300 units): +
Resistance to (A82846; 300 units): +
antibiotic resistance ([1]; disc 300 units): resistant
